From PubChem BioAssay AID2060613 (Molecular Pharmacology Branch, DTP, NCI, 2025)
“And” between values parts separate entries of the source, which are not always exact repeats. Equal entries are not always repeated.

System: 233499-124-R-J3-PDC complex spheroid viability
Test: Anticancer human tumor 233499-124-R-J3-PDC patient-derived colon adenocarcinoma cell line growth inhibition [CLK]
Details: for viability, T/C: stronger effect = lower value; active means viability on the fitted dose curve at most 10% of control; inactive means the rest
In short: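 Multi-cell-type spheroids combined patient-derived tumor cells with HUVEC endothelial cells and human mesenchymal stem cells. Paired agents were dosed in half-log steps down from about clinical Cmax, or from 10 microM where Cmax was unknown.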

[1] = curve of first compound, second compound 0.0316 µM
[2] = curve of first compound, second compound 0.1 µM
[3] = curve of first compound, second compound 0.316 µM
[4] = curve of first compound, second compound 1 µM
[5] = curve of first compound, second compound 3.16 µM
[6] = curve of first compound, second compound 10 µM
[7] = second compound 0.0316 µM, first compound 0.0316 µM
[8] = second compound 0.0316 µM, first compound 0.1 µM
[9] = second compound 0.0316 µM, first compound 0.316 µM
[10] = second compound 0.0316 µM, first compound 1 µM
[11] = second compound 0.0316 µM, first compound 3.16 µM
[12] = second compound 0.0316 µM, first compound 10 µM
[13] = second compound 0.1 µM, first compound 0.0316 µM
[14] = second compound 0.1 µM, first compound 0.1 µM
[15] = second compound 0.1 µM, first compound 0.316 µM
[16] = second compound 0.1 µM, first compound 1 µM
[17] = second compound 0.1 µM, first compound 3.16 µM
[18] = second compound 0.1 µM, first compound 10 µM
[19] = second compound 0.316 µM, first compound 0.0316 µM
[20] = second compound 0.316 µM, first compound 0.1 µM
[21] = second compound 0.316 µM, first compound 0.316 µM
[22] = second compound 0.316 µM, first compound 1 µM
[23] = second compound 0.316 µM, first compound 3.16 µM
[24] = second compound 0.316 µM, first compound 10 µM
[25] = second compound 1 µM, first compound 0.0316 µM
[26] = second compound 1 µM, first compound 0.1 µM
[27] = second compound 1 µM, first compound 0.316 µM
[28] = second compound 1 µM, first compound 1 µM
[29] = second compound 1 µM, first compound 3.16 µM
[30] = second compound 1 µM, first compound 10 µM
[31] = second compound 3.16 µM, first compound 0.0316 µM
[32] = second compound 3.16 µM, first compound 0.1 µM
[33] = second compound 3.16 µM, first compound 0.316 µM
[34] = second compound 3.16 µM, first compound 1 µM
[35] = second compound 3.16 µM, first compound 3.16 µM
[36] = second compound 3.16 µM, first compound 10 µM
[37] = second compound 10 µM, first compound 0.0316 µM
[38] = second compound 10 µM, first compound 0.1 µM
[39] = second compound 10 µM, first compound 0.316 µM
[40] = second compound 10 µM, first compound 1 µM
[41] = second compound 10 µM, first compound 3.16 µM
[42] = second compound 10 µM, first compound 10 µM
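Further: spheroids exposed to the drug combinations for seven days.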
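Wherever viability, T/C is given: percent viability relative to DMSO vehicle control wells taken as 100%.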

CCCS(=O)(=O)Nc1ccc(F)c(C(=O)c2c[nH]c3ncc(-c4ccc(Cl)cc4)cc23)c1F + CN1CCN(c2cc(C(=O)Nc3cc4cc(-c5cnn(C)c5)ccc4cn3)ccn2)CC1
8.04 µM: IC50 [3]
> 10 µM: IC50 [1] | IC50 [2]
active: viability, T/C [25] 1.29% | viability, T/C [26] 4.3% | viability, T/C [27] 5.03% | viability, T/C [28] 0.45% | viability, T/C [29] 0.8% | viability, T/C [30] 1.4% | viability, T/C [31] 0.42% | viability, T/C [32] 0.62% | viability, T/C [33] 1.12% | viability, T/C [34] 0.53% | viability, T/C [35] 0.63% | viability, T/C [36] 0.92% | viability, T/C [37] 0.24% | viability, T/C [38] 0.32% | viability, T/C [39] 1.24% | viability, T/C [40] 0.33% | viability, T/C [41] 0.36% | viability, T/C [42] 0.85%
< 0.0316 µM: IC50 [4] | IC50 [5] | IC50 [6]
inactive: viability, T/C [7] 103% | viability, T/C [8] 98.2% | viability, T/C [9] 101% | viability, T/C [10] 99.8% | viability, T/C [11] 97.2% | viability, T/C [12] 92.4% | viability, T/C [13] 98.5% | viability, T/C [14] 103% | viability, T/C [15] 103% | viability, T/C [16] 106% | viability, T/C [17] 109% | viability, T/C [18] 92.2% | viability, T/C [19] 96.7% | viability, T/C [20] 96.9% | viability, T/C [21] 91.8% | viability, T/C [22] 89.3% | viability, T/C [23] 99.9% | viability, T/C [24] 39.5%

CC(Nc1ccc2c(c1)OCCn1cc(N3C(=O)OCC3C(F)F)nc1-2)C(N)=O (stereo not given)
> 10 µM: IC50 (curve of compound)
inactive: viability, T/C (compound 0.0316 µM) 94% | viability, T/C (compound 0.1 µM) 83.7% | viability, T/C (compound 0.316 µM) 79.8% | viability, T/C (compound 1 µM) 74.8% | viability, T/C (compound 3.16 µM) 61.7% | viability, T/C (compound 10 µM) 51.9%

C=CC(=O)Nc1cc(Nc2nccc(-c3cn(C)c4ccccc34)n2)c(OC)cc1N(C)CCN(C)C
inactive: viability, T/C (compound 0.000949 µM) 92.5% and 102% | viability, T/C (compound 0.003 µM) 91.5% and 98.6% | viability, T/C (compound 0.00949 µM) 99.7% and 103% | viability, T/C (compound 0.03 µM) 96.9% and 87.8% | viability, T/C (compound 0.0949 µM) 86% and 93.7% | viability, T/C (compound 0.3 µM) 76.8% and 82.2%
> 0.3 µM: IC50 (curve of compound)

Cn1ncnc1[C@H]1c2n[nH]c(=O)c3cc(F)cc(c23)N[C@@H]1c1ccc(F)cc1
> 0.1 µM: IC50 (curve of compound)
inactive: viability, T/C (compound 0.000316 µM) 100% and 107% | viability, T/C (compound 0.001 µM) 85.7% and 92% | viability, T/C (compound 0.00316 µM) 100% and 103% | viability, T/C (compound 0.01 µM) 97.6% and 97.4% | viability, T/C (compound 0.0316 µM) 100% and 97.1% | viability, T/C (compound 0.1 µM) 103% and 96%

O=C(c1cc(Cc2n[nH]c(=O)c3ccccc23)ccc1F)N1CCN(C(=O)C2CC2)CC1 + CN1CCN(c2cc(C(=O)Nc3cc4cc(-c5cnn(C)c5)ccc4cn3)ccn2)CC1
active: viability, T/C [25] 3.57% | viability, T/C [26] 2.51% | viability, T/C [27] 2.71% | viability, T/C [28] 16.4% | viability, T/C [29] 3.61% | viability, T/C [30] 1.27% | viability, T/C [31] 0.91% | viability, T/C [32] 0.94% | viability, T/C [33] 0.75% | viability, T/C [34] 0.71% | viability, T/C [35] 0.8% | viability, T/C [36] 1.09% | viability, T/C [37] 0.64% | viability, T/C [38] 0.56% | viability, T/C [39] 0.6% | viability, T/C [40] 4.25% | viability, T/C [41] 0.89% | viability, T/C [42] 1.84%
< 0.0316 µM: IC50 [4] | IC50 [5] | IC50 [6]
> 10 µM: IC50 [1] | IC50 [2] | IC50 [3]
inactive: viability, T/C [7] 79.9% | viability, T/C [8] 98.1% | viability, T/C [9] 96.8% | viability, T/C [10] 108% | viability, T/C [11] 99.4% | viability, T/C [12] 93.2% | viability, T/C [13] 98.6% | viability, T/C [14] 105% | viability, T/C [15] 103% | viability, T/C [16] 109% | viability, T/C [17] 110% | viability, T/C [18] 82.4% | viability, T/C [19] 103% | viability, T/C [20] 99.4% | viability, T/C [21] 103% | viability, T/C [22] 93.8% | viability, T/C [23] 96.8% | viability, T/C [24] 87.1%
